Experimental data taken from patent US20050256103A1, “Indole derivative having piperidine ring” (Eisai Co., Ltd., priority 2004, published 2005).
Like-named read-outs stand apart in the source and are kept apart here.

Assays:
serotonin 1A receptor = biological target: T1, serotonin 1A receptor (Mus musculus, UniProt Q64264); assay: Antagonistic effect on serotonin 1A receptor agonist (8-OH-DPAT)-induced hypothermia in mouse; assay type: in vivo; details: for ED50: CD-1 (ICR) male mice, inhibition of hypothermia by 8-OH-DPAT 0.5 mg/kg sc, test substance 15 minutes before agonist
T1 construct: into the rectum of CD-1 (ICR) male mice (25-45 g); from tissue; host or cells: living CD-1 (ICR) male mice (in vivo)
T1 sequence (Q64264 1-421): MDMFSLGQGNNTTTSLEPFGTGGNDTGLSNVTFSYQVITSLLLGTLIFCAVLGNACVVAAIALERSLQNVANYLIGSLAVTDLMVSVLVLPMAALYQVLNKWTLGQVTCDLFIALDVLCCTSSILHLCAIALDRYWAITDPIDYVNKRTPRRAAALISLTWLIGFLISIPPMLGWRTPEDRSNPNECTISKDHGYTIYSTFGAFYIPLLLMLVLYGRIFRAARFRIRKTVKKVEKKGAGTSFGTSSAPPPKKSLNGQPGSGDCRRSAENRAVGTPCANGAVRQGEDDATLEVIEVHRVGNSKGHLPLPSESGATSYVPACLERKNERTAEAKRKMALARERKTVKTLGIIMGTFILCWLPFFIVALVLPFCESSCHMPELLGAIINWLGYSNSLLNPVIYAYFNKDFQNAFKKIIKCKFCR
Method in brief: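 CD-1 (ICR) male mice, 25-45 g; rectal temperature by thermistor probe at about 2 cm depth. Test substance given 15 min before s.c. 8-OH-DPAT […]; antagonism scored as inhibition of the induced hypothermia.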

5-HT1A receptor = biological target: T2, 5-HT1A receptor (Sus scrofa, UniProt A0A4X1UTF5); assay: Affinity for serotonin 1A receptor: inhibition of [3H]MPPF binding in swine hippocampal membrane fraction; details: for IC50: [3H]MPPF 0.5 nM, swine hippocampal membrane, 37°C 30 min; for L/H ratio: low affinity IC50 divided by high affinity IC50, 1 or smaller = no intrinsic activity, 2 or greater = intrinsic activity
T2 construct: Swine hippocampus was homogenized in a 50 mM Tris-Hcl buffer; from tissue; host or cells: swine hippocampus, membrane fraction
T2 sequence (A0A4X1UTF5 1-422): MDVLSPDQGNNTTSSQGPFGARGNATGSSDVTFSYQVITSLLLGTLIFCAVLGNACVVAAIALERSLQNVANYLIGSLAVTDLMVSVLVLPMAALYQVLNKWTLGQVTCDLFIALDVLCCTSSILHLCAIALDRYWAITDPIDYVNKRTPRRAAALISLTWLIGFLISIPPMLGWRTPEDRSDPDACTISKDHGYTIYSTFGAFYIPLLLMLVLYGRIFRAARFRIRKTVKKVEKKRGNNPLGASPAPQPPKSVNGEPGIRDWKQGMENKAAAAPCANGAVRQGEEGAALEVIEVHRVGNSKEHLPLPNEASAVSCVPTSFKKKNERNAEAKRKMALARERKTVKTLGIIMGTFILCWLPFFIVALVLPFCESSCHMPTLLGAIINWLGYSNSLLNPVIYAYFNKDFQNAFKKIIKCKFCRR
Method in brief: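 Swine hippocampal membranes incubated 30 min at 37 °C with 0.5 nM [3H]MPPF and test compound in 50 mM Tris-HCl pH 7.4, 1% DMSO, with 10 mM MgCl2 (G-protein-coupled, high-affinity state) or 1 mM Gpp(NH)p (uncoupled, low-affinity state). Bound radioactivity measured by filtration and scintillation counting; nonspecific binding defined with 10 μM WAY-100,635. IC50 in each state; low/high IC50 ratio taken as an estimate of intrinsic activity.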

[1] = system: urinary reflex of Sprague-Dawley female rats; assay: Inhibitory action against accentuated urinary reflex of rat due to destruction of the superior colliculus (cystometrogram); assay type: in vivo; details: iv, rat with superior colliculus lesion
Text: (1) In the present test, Sprague-Dawley female rates (200-350 g) were used. The rats were subjected to median incision of the abdomen under anesthesia. Thereafter, a hole with a minor diameter was made on the head portion of the bladder, and a catheter used for measurement of an intravesical pressure was placed therein. A catheter used for administration of a test substance was placed in the femoral vein. These catheters were fixed at the occipital region of the rat through the subcutis. One day later, the urinary reflex of the rats was measured with a cystometrogram. Thereafter, the rats were fixed on a brain stereotaxis apparatus under anesthesia, and then subjected to median incision of the scalp. […] Thereafter, electric current was applied (65° C., 4 minutes), so as to damage the brain tissues. After completion of the operation, when the rat awakened from anesthesia, cystometrogram was conducted again to confirm the enhanced state of urinary reflex. A test substance was administered through the catheter placed in the femoral vein, and the action of the test substance to the urinary reflex was evaluated. In addition, the effects of several test substances were compared using the maximal reaction (Emax).

[2] = receptor in high affinity (G-protein binding, MgCl2 10 mM) state, read-out: High affinity IC50
[3] = receptor in low affinity (G-protein non-binding, Gpp(NH)p 1 mM) state, read-out: Low affinity IC50

COc1ccc2nc(C)oc2c1CCN1CCC(n2ccc3ccc(C(N)=O)cc32)CC1 [Compound 3, 1-{1-[2-(6-methoxy-2-methylbenzoxazol-7-yl)ethyl]piperidin-4-yl}-1H-indole-6-carboxamide]
ED50 (serotonin 1A receptor): 0.18 mg/kg, sc
IC50 (5-HT1A receptor; [2]): 460 pM
IC50 (5-HT1A receptor; [3]): 340 pM
L/H ratio (5-HT1A receptor): 0.7
Bladder capacity Emax ([1]; dose 0.03 mg/kg): 62%

COc1cc2oc(C)nc2cc1CCN1CCC(n2ccc3ccc(C(N)=O)cc32)CC1 [Compound 4, 1-{1-[2-(6-methoxy-2-methylbenzoxazol-5-yl)ethyl]piperidin-4-yl}-1H-indole-6-carboxamide]
ED50 (serotonin 1A receptor): 0.1 mg/kg, sc
IC50 (5-HT1A receptor; [2]): 170 pM
IC50 (5-HT1A receptor; [3]): 150 pM
L/H ratio (5-HT1A receptor): 0.9
Bladder capacity Emax ([1]; dose 0.03 mg/kg): 107%

CCn1c(=O)oc2cc(OC)c(CCN3CCC(n4ccc5ccc(C(N)=O)cc54)CC3)cc21 [Compound 60, 1-{1-[2-(3-ethyl-6-methoxy-2-oxo-2,3-dihydrobenzoxazol-5-yl)ethyl]piperidin-4-yl}-1H-indole-6-carboxamide]
ED50 (serotonin 1A receptor): 0.52 mg/kg, sc
IC50 (5-HT1A receptor; [2]): 280 pM
IC50 (5-HT1A receptor; [3]): 240 pM
L/H ratio (5-HT1A receptor): 0.9

NC(=O)c1ccc2ccn(C3CCN(CCc4ccc(F)cc4)CC3)c2c1 [Compound A, reference compound]
ED50 (serotonin 1A receptor): >1 mg/kg, sc
antagonistic effect against the receptor (serotonin 1A receptor; result in words): weak
IC50 (5-HT1A receptor; [2]): 100 pM
L/H ratio (5-HT1A receptor): 3.7
IC50 (5-HT1A receptor; read-out: Low affinity IC50, receptor in low affinity (G-protein non-binding, Gpp(NH)p 1 mM) state): 500 pM
affinity for 5-HT1A (5-HT1A receptor; result in words): has affinity
Bladder capacity Emax ([1]; dose 0.01 mg/kg): −36%
